Source: ChEMBL document CHEMBL3862010, “N-Arylsulfonyl-α-amino carboxamides are potent and selective inhibitors of the chemokine receptor CCR10 that show efficacy in the murine DNFB model of contact hypersensitivity” (Bioorg Med Chem Lett, 2016)
Blank lines part the entries; values can stand above or below the compound they belong to.

Tests used:
[1] = target: T1, C-C chemokine receptor type 10 (Homo sapiens, UniProt P46092); assay: Antagonist activity at human CCR10 expressed in CHOK1 cells coexpressing aequorin/Galphaq assessed as inhibition of human CCL27-dependent calcium flux in presence of coelenterazine H by chemiluminescence assay; type: functional, cell-based, CHO-K1; details: read-out: pIC50 (converted)
T1 sequence (P46092 whole entry): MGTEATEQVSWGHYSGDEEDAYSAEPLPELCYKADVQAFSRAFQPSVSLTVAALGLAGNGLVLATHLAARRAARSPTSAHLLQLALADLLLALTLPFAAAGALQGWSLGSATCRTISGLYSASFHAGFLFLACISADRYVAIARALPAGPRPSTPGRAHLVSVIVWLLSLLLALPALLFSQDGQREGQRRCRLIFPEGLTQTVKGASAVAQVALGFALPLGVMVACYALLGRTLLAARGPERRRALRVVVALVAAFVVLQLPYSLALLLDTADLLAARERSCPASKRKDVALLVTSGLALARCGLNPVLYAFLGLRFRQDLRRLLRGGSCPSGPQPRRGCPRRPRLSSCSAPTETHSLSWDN

[2] = target: T2, C-C chemokine receptor type 10 (Mus musculus, UniProt Q9JL21); assay: Antagonist activity at mouse CCR10 expressed in CHOK1 cells coexpressing aequorin/Galphaq assessed as inhibition of CCL27-dependent calcium flux in presence of coelenterazine H by chemiluminescence assay; type: functional, cell-based, CHO-K1
T2 sequence (Q9JL21 whole entry): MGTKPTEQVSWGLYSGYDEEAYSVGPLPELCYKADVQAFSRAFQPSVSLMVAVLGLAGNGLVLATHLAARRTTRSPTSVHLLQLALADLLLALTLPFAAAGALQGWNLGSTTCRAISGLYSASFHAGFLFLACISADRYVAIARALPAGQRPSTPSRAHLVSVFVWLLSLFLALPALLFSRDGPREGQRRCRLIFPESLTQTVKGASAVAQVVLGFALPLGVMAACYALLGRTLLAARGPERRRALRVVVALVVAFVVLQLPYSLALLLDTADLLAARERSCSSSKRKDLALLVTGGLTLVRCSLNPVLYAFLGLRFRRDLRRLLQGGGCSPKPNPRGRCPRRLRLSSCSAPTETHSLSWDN

[3] = target: T1, C-C chemokine receptor type 10; assay: Antagonist activity at human CCR10 expressed in CHOK1 cells coexpressing aequorin/Galphaq assessed as inhibition of CCL27-dependent calcium flux in presence of coelenterazine H by FLIPR assay; type: functional, cell-based, CHO-K1
[4] = target: T1, C-C chemokine receptor type 10; assay: Displacement of human CCL27-Fc from CCR10 expressed in HEK cell membranes by immunochemical binding analysis; set-up: species or system HEK293
[5] = target: T1, C-C chemokine receptor type 10; assay: Antagonist activity at human CCR10 expressed in CHOK1 cells coexpressing aequorin/Galphaq assessed as inhibition of human CCL28-dependent calcium flux by FLIPR assay; type: functional, cell-based, CHO-K1
[6] = target: T1, C-C chemokine receptor type 10; assay: Antagonist activity at human CCR10 expressed in CHOK1 cells coexpressing aequorin/Galphaq assessed as inhibition of human CCL28-dependent calcium flux by chemiluminescence assay; type: functional, cell-based, CHO-K1
[7] = target: T1, C-C chemokine receptor type 10; assay: Antagonist activity at human CCR10 expressed in HEK cells assessed as inhibition of human CCL27-dependent cAMP production; type: functional, cell-based, HEK293
[8] = target: T1, C-C chemokine receptor type 10; assay: Antagonist activity at human CCR10 expressed in HEK cell membranes assessed as inhibition of human CCL27-dependent europium-labeled GTP binding; set-up: species or system HEK293
[9] = target: C-C chemokine receptor type 1 (Homo sapiens, UniProt P32246); assay: Antagonist activity at human CCR1 assessed as inhibition of MIP1alpha-induced calcium flux; type: functional
[10] = target: C-C chemokine receptor type 2 (Homo sapiens, UniProt P41597); assay: Antagonist activity at human CCR2 assessed as inhibition of MCP1-induced calcium flux; type: functional
[11] = target: C-C chemokine receptor type 5 (Homo sapiens, UniProt P51681); assay: Antagonist activity at human CCR5 assessed as inhibition of RANTES-induced calcium flux; type: functional
[12] = target: C-X-C chemokine receptor type 3 (Homo sapiens, UniProt P49682); assay: Antagonist activity at human CXCR3 assessed as inhibition of IP10-induced calcium flux; type: functional
[13] = target: C-X-C chemokine receptor type 2 (Homo sapiens, UniProt P25025); assay: Antagonist activity at human CXCR2 assessed as inhibition of GROalpha-induced calcium flux; type: functional
[14] = target: C-C chemokine receptor type 6 (Homo sapiens, UniProt P51684); assay: Antagonist activity at human CCR6 assessed as inhibition of CCL20/MIP-3alpha-induced calcium flux; type: functional
[15] = target: Histamine H4 receptor (Homo sapiens, UniProt Q9H3N8); assay: Antagonist activity at human histamine H4 receptor assessed as inhibition of histamine-induced calcium flux; type: functional
[16] = target: Adrenergic receptor alpha-1 (Rattus norvegicus) (UniProt P15823+P23944+P43140); assay: Binding affinity to rat adrenergic alpha1 receptor at 10 uM relative to control
[17] = target: Adrenergic receptor alpha-2 (Rattus norvegicus) (UniProt P22086+P19328+P22909); assay: Binding affinity to rat adrenergic alpha2 receptor at 10 uM relative to control
[18] = target: Adrenergic receptor beta (Rattus norvegicus) (UniProt P18090+P10608+P26255); assay: Binding affinity to rat adrenergic beta receptor at 10 uM relative to control
[19] = target: Type-1 angiotensin II receptor (Homo sapiens) (UniProt P30556); assay: Binding affinity to human AT1 receptor at 10 uM relative to control
[20] = target: B2 bradykinin receptor (Homo sapiens) (UniProt P30411); assay: Binding affinity to human B2 bradykinin receptor at 10 uM relative to control
[21] = target: Calcitonin gene-related peptide type 1 receptor (Homo sapiens) (UniProt Q16602); assay: Binding affinity to human CGRP1 receptor at 10 uM relative to control
[22] = target: D(1A) dopamine receptor (Homo sapiens) (UniProt P21728); assay: Binding affinity to human dopamine D1 receptor at 10 uM relative to control
[23] = target: D(2) dopamine receptor (Homo sapiens) (UniProt P14416); assay: Binding affinity to human dopamine D2L receptor at 10 uM relative to control
[24] = target: D(3) dopamine receptor (Homo sapiens) (UniProt P35462); assay: Binding affinity to human dopamine D3 receptor at 10 uM relative to control
[25] = species: Homo sapiens; assay: Binding affinity to human dopamine D4.2 receptor at 10 uM relative to control
[26] = species: Rattus norvegicus; assay: Binding affinity to rat GABA-B receptor at 10 uM relative to control
[27] = target: Histamine H1 receptor (Homo sapiens) (UniProt P35367); assay: Binding affinity to human histamine H1 receptor at 10 uM relative to control
[28] = target: Histamine H2 receptor (Homo sapiens) (UniProt P25021); assay: Binding affinity to human histamine H2 receptor at 10 uM relative to control
[29] = species: Rattus norvegicus; assay: Binding affinity to rat muscarinic acetylcholine receptor at 10 uM relative to control
[30] = species: Homo sapiens; assay: Binding affinity to human nicotinic acetylcholine receptor at 10 uM relative to control
[31] = species: Rattus norvegicus; assay: Binding affinity to rat 5-HT1 receptor at 10 uM relative to control
[32] = target: 5-hydroxytryptamine receptor 2A (Rattus norvegicus) (UniProt P14842); assay: Binding affinity to rat 5-HT2 receptor at 10 uM relative to control
[33] = target: 5-hydroxytryptamine receptor 3A (Homo sapiens) (UniProt P46098); assay: Binding affinity to human 5-HT3 receptor at 10 uM relative to control
[34] = target: 5-hydroxytryptamine receptor 4 (Cavia porcellus) (UniProt O70528); assay: Binding affinity to guinea pig 5-HT4 receptor at 10 uM relative to control
[35] = target: T1, C-C chemokine receptor type 10; assay: Reversible inhibition of human CCL27-Fc binding to CCR10 expressed in HEK cell membranes by immunochemical binding assay; set-up: species or system HEK293
[36] = Half life in mouse liver microsomes; type: ADME
[37] = Clearance in mouse liver microsomes relative to hepatic blood flow; type: ADME; details: read-out: CLH

Sequence of C-C chemokine receptor type 5 (P51681 whole entry): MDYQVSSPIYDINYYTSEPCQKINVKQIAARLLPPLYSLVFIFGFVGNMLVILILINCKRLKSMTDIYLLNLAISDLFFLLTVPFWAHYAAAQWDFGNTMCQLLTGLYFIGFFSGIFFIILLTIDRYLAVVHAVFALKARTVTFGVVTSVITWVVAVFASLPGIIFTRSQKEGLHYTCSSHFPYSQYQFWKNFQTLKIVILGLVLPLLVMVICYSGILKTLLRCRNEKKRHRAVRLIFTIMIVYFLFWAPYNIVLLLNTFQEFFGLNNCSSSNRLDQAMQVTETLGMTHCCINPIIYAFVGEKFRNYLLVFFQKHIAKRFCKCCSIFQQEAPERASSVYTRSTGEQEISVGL
Sequence of C-C chemokine receptor type 1 (P32246 whole entry): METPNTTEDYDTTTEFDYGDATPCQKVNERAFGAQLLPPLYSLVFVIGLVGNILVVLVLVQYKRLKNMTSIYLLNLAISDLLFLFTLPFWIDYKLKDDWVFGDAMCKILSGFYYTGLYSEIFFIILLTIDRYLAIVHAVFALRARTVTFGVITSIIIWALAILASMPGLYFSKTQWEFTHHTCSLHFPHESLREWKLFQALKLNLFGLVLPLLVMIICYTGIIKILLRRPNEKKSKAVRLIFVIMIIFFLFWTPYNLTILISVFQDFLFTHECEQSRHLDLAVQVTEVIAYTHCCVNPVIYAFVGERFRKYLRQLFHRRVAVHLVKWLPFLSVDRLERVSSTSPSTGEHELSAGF
Sequence of C-C chemokine receptor type 2 (P41597 whole entry): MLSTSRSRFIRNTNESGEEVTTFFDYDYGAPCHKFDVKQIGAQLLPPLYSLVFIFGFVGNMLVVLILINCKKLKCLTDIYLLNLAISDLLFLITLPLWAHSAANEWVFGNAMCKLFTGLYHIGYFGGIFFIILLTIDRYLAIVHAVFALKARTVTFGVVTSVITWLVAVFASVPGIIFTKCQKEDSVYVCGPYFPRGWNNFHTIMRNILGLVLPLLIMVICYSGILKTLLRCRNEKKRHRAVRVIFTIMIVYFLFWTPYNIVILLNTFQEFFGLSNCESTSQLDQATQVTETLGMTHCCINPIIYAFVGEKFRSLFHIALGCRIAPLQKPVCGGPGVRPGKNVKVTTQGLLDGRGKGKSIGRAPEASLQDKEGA
Sequence of C-X-C chemokine receptor type 2 (P25025 whole entry): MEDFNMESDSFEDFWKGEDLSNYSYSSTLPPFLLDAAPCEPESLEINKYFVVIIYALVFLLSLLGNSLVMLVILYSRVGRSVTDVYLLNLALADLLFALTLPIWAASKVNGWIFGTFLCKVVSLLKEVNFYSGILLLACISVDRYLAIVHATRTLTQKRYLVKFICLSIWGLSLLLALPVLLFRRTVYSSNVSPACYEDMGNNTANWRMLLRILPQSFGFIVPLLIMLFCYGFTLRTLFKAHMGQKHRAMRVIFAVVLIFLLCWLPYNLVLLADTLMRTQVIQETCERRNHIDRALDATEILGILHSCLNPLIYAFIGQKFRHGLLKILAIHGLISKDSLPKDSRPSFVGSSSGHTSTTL
Sequence of C-X-C chemokine receptor type 3 (P49682 whole entry): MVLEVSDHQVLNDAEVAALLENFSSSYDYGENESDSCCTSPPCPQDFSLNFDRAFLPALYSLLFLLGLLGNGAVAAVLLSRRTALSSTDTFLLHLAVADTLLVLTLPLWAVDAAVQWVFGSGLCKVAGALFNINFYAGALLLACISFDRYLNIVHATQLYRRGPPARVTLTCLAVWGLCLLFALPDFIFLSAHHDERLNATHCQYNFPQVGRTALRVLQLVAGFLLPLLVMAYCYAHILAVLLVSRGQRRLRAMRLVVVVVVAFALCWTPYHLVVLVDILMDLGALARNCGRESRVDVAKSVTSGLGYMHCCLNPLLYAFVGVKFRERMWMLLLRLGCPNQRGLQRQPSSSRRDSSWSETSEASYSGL
Sequence of Type-1 angiotensin II receptor (Homo sapiens) (P30556 whole entry): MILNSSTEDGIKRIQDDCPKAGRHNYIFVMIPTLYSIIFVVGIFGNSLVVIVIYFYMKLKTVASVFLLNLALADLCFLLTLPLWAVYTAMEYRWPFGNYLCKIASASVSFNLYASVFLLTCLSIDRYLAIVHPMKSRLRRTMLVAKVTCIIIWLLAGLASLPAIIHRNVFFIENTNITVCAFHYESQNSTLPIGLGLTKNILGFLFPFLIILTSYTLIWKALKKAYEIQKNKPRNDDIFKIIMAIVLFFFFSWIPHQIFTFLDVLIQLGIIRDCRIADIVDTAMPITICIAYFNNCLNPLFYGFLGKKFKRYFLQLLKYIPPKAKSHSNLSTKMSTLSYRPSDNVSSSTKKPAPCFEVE
Sequence of D(3) dopamine receptor (Homo sapiens) (P35462 whole entry): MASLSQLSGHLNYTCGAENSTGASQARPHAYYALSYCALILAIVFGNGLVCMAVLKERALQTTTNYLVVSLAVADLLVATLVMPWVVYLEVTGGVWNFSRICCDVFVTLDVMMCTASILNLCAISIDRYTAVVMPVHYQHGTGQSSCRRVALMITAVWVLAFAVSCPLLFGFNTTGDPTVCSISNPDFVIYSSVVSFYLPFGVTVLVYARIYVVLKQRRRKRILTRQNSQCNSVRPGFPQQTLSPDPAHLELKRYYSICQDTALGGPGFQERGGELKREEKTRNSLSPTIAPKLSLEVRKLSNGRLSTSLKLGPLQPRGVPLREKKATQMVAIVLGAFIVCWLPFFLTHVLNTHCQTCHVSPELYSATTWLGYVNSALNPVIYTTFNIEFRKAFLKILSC
Sequence of Calcitonin gene-related peptide type 1 receptor (Homo sapiens) (Q16602 whole entry): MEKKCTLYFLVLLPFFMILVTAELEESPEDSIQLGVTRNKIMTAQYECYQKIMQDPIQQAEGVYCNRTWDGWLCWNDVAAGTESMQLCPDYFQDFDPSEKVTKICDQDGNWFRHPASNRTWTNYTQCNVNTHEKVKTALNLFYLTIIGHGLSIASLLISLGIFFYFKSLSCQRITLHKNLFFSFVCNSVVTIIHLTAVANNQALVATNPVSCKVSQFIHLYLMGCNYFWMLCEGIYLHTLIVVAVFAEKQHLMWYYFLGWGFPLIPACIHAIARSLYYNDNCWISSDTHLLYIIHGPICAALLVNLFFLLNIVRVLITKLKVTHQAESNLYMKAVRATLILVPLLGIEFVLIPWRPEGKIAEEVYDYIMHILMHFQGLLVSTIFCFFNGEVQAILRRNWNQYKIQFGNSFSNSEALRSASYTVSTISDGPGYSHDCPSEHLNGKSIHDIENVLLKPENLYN
Sequence of 5-hydroxytryptamine receptor 2A (Rattus norvegicus) (P14842 whole entry): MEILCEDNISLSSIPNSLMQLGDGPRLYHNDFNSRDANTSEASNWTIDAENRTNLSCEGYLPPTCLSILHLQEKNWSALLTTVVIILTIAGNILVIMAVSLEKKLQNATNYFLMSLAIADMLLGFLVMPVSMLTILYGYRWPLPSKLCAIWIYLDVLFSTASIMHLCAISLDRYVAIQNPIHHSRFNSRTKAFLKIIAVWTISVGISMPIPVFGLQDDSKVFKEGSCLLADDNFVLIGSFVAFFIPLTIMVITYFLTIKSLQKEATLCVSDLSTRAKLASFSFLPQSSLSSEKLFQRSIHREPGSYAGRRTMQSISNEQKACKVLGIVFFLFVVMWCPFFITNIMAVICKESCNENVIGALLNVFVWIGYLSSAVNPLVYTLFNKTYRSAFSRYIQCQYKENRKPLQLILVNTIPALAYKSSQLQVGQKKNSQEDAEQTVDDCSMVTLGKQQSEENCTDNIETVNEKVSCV
Sequence of Histamine H2 receptor (Homo sapiens) (P25021 whole entry): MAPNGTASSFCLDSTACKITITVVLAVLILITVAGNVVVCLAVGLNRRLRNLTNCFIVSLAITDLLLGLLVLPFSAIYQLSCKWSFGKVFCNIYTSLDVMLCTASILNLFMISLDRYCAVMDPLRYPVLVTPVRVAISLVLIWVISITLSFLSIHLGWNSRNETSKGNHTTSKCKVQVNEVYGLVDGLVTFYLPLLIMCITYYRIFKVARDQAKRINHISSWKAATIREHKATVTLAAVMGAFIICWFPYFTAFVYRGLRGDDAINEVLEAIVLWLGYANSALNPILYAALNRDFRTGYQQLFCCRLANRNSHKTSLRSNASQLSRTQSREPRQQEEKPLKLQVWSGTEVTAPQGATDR
Sequence of B2 bradykinin receptor (Homo sapiens) (P30411 whole entry): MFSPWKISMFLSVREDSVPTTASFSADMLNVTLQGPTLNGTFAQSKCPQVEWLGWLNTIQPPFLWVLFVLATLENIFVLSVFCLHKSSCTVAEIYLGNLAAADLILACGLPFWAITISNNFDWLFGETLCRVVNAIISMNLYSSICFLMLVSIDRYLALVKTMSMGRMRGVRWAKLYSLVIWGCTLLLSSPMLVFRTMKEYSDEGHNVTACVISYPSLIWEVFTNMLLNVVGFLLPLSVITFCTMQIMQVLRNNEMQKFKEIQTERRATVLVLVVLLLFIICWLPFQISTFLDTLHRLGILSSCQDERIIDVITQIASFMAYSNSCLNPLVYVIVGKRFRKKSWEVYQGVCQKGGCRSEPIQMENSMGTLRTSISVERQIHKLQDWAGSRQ
Sequence of Histamine H1 receptor (Homo sapiens) (P35367 whole entry): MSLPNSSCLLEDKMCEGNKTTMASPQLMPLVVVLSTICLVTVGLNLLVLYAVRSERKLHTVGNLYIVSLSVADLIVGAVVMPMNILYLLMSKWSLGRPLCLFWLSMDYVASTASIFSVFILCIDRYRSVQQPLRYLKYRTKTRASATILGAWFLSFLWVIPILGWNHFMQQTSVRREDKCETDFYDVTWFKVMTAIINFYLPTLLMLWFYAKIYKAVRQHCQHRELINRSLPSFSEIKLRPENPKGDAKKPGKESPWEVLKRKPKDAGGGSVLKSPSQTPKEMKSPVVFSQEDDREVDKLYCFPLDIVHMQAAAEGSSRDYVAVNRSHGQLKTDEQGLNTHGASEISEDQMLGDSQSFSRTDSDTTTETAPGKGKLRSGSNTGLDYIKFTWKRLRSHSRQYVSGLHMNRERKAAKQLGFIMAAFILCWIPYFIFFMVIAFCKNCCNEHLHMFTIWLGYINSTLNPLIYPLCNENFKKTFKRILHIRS

IC50 [1]: 20 nM
IC50 [2]: 1580 nM
IC50 [3]: 2 nM
IC50 [4]: 3.4 nM
IC50 [5]: 12.6 nM
IC50 [6]: 12.6 nM
IC50 [7]: 158 nM
IC50 [8]: 20 nM
IC50 [9]: > 10000 nM
IC50 [10]: > 10000 nM
IC50 [11]: > 10000 nM
IC50 [12]: > 10000 nM
IC50 [13]: > 10000 nM
IC50 [14]: > 10000 nM
IC50 [15]: > 10000 nM
Activity [16]: < 10%
Activity [17]: < 10%
Activity [18]: 12%
Activity [19]: < 10%
Activity [20]: < 10%
Activity [21]: < 10%
Activity [22]: < 10%
Activity [23]: < 10%
Activity [24]: 11%
Activity [25]: < 10%
Activity [26]: 10%
Activity [27]: < 10%
Activity [28]: 12%
Activity [29]: 11%
Activity [30]: < 10%
Activity [31]: 11%
Activity [32]: < 10%
Activity [33]: < 10%
Activity [34]: 28%
IC50 [35]: 3.4 nM
SMILES: CC1CCN(C(=O)C(CCn2cccc2C#N)NS(=O)(=O)c2cc(Cl)c(N)c(Cl)c2)CC1 (stereo not given)

IC50 [1]: 2 nM
IC50 [2]: 63.1 nM
IC50 [3]: 0.398 nM
IC50 [5]: 1.26 nM
IC50 [6]: 1 nM
IC50 [7]: 25.1 nM
half-life [36]: < 3 min
IC50 [8]: 10 nM
IC50 [9]: > 10000 nM
IC50 [10]: > 10000 nM
IC50 [11]: > 10000 nM
IC50 [12]: > 10000 nM
IC50 [13]: > 10000 nM
IC50 [15]: > 10000 nM
hepatic extraction ratio [37]: > 0.88
SMILES: CC1CCN(C(=O)C(CCn2cccc2C#N)NS(=O)(=O)c2cccc3[nH]ccc23)CC1 (racemic)
